The source made the active and inactive calls.
Key:
Mucolipin-3 = target: T1, Mucolipin-3 (Homo sapiens, UniProt Q8TDD5); test: Dose response cell-based high-throughput screening assay for agonists of the transient receptor potential channel ML3 (TRPML3). [Related pubchem assays: 1526, 1424, 1448 ]; assay type: functional
T1 sequence (Q8TDD5 whole entry): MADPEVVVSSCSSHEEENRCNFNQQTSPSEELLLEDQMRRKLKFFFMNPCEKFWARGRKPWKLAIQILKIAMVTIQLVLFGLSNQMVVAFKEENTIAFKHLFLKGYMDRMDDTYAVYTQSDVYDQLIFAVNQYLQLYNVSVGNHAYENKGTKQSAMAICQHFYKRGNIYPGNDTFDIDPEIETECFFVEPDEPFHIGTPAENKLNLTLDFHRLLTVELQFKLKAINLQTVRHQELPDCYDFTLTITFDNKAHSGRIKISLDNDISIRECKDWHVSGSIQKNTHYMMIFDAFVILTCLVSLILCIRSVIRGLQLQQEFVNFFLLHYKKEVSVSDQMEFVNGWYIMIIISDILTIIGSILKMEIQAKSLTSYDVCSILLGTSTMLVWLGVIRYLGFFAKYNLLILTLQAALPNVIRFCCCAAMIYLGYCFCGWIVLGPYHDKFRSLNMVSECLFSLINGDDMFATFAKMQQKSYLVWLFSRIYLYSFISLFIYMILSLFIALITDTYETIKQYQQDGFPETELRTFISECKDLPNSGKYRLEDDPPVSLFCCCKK

Ion channel NompC = Ion channel NompC (Danio rerio, UniProt Q7T1G6); test: Fluorescence counterscreen assay for TRPML3 agonists: dose response cell-based high-throughput screening assay to identify agonists of the transient receptor potential channel N1 (TRPN1). [Related pubchem assays: 1526, 1424, 1448 ]; assay type: functional
Sequence of Ion channel NompC (Q7T1G6 whole entry): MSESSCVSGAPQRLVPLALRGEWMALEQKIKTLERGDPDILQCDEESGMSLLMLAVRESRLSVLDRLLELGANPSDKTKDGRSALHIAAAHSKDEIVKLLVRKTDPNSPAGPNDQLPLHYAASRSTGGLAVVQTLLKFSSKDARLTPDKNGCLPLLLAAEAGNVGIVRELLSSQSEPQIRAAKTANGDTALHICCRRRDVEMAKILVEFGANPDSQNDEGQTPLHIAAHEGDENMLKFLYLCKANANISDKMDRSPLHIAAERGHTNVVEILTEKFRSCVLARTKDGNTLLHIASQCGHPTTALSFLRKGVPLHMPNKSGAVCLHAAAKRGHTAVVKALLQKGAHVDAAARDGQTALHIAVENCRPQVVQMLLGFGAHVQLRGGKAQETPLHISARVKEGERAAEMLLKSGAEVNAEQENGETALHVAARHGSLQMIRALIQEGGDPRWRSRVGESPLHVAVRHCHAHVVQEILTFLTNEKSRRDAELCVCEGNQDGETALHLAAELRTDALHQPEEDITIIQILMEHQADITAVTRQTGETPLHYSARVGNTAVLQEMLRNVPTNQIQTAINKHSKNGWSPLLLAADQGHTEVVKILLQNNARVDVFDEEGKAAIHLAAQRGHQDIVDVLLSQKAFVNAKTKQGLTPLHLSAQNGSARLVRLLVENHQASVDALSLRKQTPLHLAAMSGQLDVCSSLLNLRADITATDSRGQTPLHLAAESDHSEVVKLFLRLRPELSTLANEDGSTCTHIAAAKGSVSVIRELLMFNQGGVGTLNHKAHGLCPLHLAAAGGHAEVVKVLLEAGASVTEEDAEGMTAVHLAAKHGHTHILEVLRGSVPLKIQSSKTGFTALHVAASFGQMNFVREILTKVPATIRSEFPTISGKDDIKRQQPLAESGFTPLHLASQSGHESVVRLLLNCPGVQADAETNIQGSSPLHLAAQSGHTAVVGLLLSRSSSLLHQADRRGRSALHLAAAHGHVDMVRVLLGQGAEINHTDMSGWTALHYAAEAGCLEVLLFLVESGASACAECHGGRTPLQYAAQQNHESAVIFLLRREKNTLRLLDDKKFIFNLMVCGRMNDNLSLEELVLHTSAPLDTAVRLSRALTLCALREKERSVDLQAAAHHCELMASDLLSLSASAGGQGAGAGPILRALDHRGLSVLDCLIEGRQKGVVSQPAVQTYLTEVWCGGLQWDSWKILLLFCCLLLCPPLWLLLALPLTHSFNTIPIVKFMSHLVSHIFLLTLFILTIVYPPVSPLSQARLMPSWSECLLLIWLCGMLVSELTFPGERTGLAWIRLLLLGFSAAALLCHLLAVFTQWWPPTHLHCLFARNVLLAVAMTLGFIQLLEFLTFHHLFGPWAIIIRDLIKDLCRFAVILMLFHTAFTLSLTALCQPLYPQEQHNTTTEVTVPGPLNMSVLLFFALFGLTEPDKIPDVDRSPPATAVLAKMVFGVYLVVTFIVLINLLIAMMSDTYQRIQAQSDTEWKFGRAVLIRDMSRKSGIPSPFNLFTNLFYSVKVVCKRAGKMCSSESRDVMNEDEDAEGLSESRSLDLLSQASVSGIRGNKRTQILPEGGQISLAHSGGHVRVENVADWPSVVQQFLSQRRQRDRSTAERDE

[1] = A cytotoxicity screen of small molecule inhibitors of the PhoP region in Salmonella typhi identified in the primary screen. [Related pubchem assays: 1850, 1864, 1985 ]; assay type: functional
[2] = Dd2 malaria parasite growth inhibition potency – SYBR Green, dry powder samples, dose response (AID 1159566); assay type: functional, cell-based;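 note: potency for growth inhibition with lower SYBR green DNA signal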
[3] = P. falciparum Dd2 growth inhibitors, dose response, SYBR Green, cherry-picked samples (AID 1159567); assay type: functional, cell-based
[4] = toxicity to human HepG2 hepatoma cells – cell-based, plate reader, dry powder samples, cytotoxicity control, dose response (AID 1159569); assay type: functional;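 note: inhibitor potency with signal falling toward the positive control level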
[5] = growth inhibition of yeast DHODH-expressing 3D7 parasites – SYBR Green, dry powder samples, dose response (AID 1159570); assay type: functional, cell-based;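 note: parasite growth measured after 72 hours of compound exposure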
[6] = growth inhibition of PfATP4-mutant resistant parasites – NITD609-resistant line, SYBR Green, dry powder, dose response (AID 1159571); assay type: functional, cell-based;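 note: parasites synchronized at ring stage by sorbitol before testing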
Kallikrein-7 = Kallikrein-7 (Homo sapiens, UniProt P49862); test: Fluorescence Intensity-based biochemical primary high throughput dose response assay to identify activators of kallikrein-7 (K7) zymogen.
Sequence of Kallikrein-7 (P49862 whole entry): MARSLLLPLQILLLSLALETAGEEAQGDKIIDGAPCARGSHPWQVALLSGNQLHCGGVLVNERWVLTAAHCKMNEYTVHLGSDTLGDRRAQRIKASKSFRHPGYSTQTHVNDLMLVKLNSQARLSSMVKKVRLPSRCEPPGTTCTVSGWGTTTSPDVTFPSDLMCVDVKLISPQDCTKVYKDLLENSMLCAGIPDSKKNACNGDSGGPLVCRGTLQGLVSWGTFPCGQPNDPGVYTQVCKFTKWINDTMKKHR

Fatty acid synthase [7] = target: T2, Fatty acid synthase (Homo sapiens, UniProt P49327); test: inhibition of human FAS-TE enzyme activity – biochemical, endpoint fluorescence intensity, uHTS hits, dose response (AID 624327); assay type: functional;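 note: fluorescence from hydrolysis of an O-methyl fluorescein acyl ester substrate by the enzyme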
T2 sequence (P49327 whole entry, the tested form may be a part): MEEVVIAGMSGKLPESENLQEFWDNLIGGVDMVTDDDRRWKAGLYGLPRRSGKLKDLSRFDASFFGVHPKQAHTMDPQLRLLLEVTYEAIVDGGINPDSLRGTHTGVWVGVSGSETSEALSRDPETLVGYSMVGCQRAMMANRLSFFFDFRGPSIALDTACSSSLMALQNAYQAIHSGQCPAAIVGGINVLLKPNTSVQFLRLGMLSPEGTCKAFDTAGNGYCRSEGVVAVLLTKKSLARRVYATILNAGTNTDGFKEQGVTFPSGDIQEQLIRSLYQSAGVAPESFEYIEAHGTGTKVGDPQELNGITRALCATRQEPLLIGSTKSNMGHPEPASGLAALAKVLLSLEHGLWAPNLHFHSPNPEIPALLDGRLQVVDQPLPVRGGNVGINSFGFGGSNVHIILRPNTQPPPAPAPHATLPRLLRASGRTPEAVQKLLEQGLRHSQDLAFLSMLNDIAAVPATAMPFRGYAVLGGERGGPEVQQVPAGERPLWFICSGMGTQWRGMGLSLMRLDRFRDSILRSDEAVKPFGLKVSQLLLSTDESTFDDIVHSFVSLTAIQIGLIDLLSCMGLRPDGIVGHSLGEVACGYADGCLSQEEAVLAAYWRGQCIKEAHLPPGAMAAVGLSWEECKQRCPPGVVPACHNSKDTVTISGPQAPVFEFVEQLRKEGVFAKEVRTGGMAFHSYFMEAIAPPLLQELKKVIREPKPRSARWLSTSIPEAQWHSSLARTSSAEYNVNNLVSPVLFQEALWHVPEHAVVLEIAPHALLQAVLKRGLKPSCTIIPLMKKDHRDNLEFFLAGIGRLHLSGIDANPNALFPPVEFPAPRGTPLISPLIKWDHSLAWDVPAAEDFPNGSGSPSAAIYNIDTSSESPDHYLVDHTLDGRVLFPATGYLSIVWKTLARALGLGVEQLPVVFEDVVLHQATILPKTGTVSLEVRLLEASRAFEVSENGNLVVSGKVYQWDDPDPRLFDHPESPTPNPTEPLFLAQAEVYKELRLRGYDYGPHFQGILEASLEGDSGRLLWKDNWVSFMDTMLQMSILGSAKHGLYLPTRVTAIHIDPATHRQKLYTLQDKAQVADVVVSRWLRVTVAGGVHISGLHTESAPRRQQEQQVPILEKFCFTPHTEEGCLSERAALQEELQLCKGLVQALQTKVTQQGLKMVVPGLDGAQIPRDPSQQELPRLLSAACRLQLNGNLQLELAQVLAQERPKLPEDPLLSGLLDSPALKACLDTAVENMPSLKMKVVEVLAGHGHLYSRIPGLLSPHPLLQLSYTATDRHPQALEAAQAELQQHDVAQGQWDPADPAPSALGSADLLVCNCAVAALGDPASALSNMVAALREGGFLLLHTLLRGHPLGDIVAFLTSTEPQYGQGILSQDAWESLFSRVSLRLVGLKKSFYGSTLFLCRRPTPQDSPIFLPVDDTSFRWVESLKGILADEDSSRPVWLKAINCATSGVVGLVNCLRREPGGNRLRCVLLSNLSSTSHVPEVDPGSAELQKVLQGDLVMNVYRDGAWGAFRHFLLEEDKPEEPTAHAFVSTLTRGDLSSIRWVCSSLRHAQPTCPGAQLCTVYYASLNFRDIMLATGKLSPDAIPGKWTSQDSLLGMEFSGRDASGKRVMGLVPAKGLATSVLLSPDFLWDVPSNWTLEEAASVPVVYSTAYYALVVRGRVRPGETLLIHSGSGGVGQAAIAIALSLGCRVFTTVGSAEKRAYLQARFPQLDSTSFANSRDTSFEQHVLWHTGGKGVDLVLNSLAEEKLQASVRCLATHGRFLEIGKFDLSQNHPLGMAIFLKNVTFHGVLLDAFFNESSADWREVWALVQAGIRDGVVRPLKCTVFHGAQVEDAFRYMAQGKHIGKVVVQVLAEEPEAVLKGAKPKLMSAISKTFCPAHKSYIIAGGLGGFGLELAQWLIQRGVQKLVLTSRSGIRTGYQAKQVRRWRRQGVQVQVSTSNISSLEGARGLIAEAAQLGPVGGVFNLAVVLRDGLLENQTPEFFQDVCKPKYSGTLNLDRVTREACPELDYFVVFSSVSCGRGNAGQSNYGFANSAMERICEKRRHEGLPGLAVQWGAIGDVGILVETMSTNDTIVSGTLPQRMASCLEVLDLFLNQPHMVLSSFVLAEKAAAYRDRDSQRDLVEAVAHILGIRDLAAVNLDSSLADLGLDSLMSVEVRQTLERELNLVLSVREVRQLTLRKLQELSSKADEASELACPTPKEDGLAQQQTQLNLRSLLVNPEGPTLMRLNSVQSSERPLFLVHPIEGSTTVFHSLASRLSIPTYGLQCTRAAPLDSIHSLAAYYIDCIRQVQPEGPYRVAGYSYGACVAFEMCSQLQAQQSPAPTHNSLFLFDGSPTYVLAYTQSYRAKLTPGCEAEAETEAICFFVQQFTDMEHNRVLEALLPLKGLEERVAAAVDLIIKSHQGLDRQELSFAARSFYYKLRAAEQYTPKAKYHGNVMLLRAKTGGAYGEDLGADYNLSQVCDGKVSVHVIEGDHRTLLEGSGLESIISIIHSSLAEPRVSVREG

[8] = target: T3, Carboxy-terminal domain RNA polymerase II polypeptide A small phosphatase 1 (Homo sapiens, UniProt Q9GZU7); test: CTDSP1 inhibitors, concentration-response, biochemical, absorbance readout, ultra-high-throughput screen actives (AID 540297); assay type: functional
T3 sequence (Q9GZU7 whole entry): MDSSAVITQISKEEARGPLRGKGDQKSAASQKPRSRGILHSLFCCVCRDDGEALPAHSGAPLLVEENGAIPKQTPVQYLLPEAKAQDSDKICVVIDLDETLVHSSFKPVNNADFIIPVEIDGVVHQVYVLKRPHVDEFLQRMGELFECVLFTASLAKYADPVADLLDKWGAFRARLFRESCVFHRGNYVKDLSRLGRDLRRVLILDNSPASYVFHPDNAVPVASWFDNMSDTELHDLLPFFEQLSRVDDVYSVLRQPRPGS

Aminopeptidase N = target: T4, Aminopeptidase N (Plasmodium falciparum FcB1/Columbia, UniProt O96935); test: malaria alanyl aminopeptidase activity blockers – biochemical, fluorogenic H-Leu-NHMec substrate, 1536-well (AID 1445); design: species or system Plasmodium falciparum 3D7, 3D7
T4 sequence (O96935 whole entry): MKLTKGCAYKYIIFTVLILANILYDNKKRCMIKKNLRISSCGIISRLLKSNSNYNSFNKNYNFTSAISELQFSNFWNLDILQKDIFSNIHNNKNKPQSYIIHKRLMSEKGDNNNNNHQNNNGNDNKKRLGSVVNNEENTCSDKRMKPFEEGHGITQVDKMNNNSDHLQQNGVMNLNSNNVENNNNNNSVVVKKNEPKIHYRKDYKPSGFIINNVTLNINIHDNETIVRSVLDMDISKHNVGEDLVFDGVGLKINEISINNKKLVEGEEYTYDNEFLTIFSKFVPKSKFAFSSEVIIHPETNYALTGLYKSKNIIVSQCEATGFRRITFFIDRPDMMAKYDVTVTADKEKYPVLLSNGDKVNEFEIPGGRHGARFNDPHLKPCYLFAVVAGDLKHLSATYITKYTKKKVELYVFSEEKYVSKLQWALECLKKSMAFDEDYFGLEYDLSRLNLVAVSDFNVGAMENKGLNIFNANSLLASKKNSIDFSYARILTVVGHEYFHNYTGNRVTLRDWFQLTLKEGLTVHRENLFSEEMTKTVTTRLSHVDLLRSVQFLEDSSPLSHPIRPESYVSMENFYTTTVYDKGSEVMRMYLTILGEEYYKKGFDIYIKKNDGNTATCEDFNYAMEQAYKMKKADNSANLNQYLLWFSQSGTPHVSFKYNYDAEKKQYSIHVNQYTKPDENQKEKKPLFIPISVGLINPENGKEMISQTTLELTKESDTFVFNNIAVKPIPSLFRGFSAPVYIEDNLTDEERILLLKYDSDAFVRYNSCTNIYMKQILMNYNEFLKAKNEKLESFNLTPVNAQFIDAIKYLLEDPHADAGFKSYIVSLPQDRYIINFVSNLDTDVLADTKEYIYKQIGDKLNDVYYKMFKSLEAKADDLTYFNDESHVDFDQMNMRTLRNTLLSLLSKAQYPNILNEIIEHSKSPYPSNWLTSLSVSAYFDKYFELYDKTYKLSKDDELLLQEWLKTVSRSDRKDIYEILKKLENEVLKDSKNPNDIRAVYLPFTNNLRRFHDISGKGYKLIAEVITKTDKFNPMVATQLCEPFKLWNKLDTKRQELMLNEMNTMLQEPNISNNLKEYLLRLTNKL

Fatty acid synthase [9] = target: T2, Fatty acid synthase; test: inhibition of human FAS-TE enzyme activity – biochemical, kinetic fluorescence intensity, dose response (AID 624326); assay type: functional;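 note: rate of fluorescence rise from hydrolysis of a fluorogenic O-methyl fluorescein ester substrate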
Caspase-6 = target: T5, Caspase-6 (Homo sapiens, UniProt P55212); test: inhibition of CASP6 peptide cleavage – biochemical, VEID-R110 fluorescence, cherry-pick, dose response (AID 720632)
T5 sequence (P55212 whole entry): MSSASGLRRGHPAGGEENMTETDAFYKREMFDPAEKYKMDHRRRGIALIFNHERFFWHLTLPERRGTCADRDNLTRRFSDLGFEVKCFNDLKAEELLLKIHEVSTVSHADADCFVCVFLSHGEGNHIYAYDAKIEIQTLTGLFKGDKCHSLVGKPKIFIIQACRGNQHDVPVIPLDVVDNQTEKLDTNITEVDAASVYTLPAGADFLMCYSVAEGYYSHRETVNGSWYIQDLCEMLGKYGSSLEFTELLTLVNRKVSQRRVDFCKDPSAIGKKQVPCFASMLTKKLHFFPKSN

Cc1cccc(CC2CC(=O)N(C3CCCCC3)C2=O)c1 (centres undefined)
EC50 (Mucolipin-3): 3.41 µM (active) | EC50 (Ion channel NompC): > 29.9 µM (not active)

CN(C)/C=N/c1ncc(C(=O)c2ccc(Cl)cc2)s1
EC50 [1]: > 50 µM (active)

C[C@H](CO)N1C[C@H](C)[C@@H](CN(C)Cc2cccc(C(=O)Nc3ccccc3N)c2)OCc2ccccc2-c2c(n(C)c3ccccc23)C1=O
AC50 [2]: 1.12 µM (active) | AC50 [3]: 1.21 µM (active) | AC50 [4]: 72.9 µM (active) | AC50 [5]: 0.944 µM (active) | AC50 [6]: 0.949 µM (active)

CC(=O)Nc1ccc(C2Nc3ccccc3C(=O)N2C2CCCCC2)cc1 (centres undefined)
EC50 (Kallikrein-7): > 69.5 µM (inactive)

O=C(O)c1cc(-c2ccc(/C=N/NC(=S)Nc3ccccc3)o2)ccc1Cl
IC50 (Fatty acid synthase [7]): 15.8 µM (active) | IC50 [8]: 12.1 µM (active) | IC50 (Aminopeptidase N): 31.2 µM (active) | IC50 (Fatty acid synthase [9]): 16.1 µM (active)

Nc1cc([N+](=O)[O-])ccc1N1C(=O)CCCC1=O
AC50 (Caspase-6): 18.3 µM (active) | IC50 [8]: 10.8 µM (active)

CC1CCCC(C)N1C(=O)CN1CCN(c2nc(-c3ccc(F)cc3)cs2)CC1 (centres undefined)
EC50 (Mucolipin-3): 27.4 µM (not active) | EC50 (Ion channel NompC): > 29.9 µM (not active)

Cc1cccn2c(=O)c3cc(C(=O)NC4CCS(=O)(=O)C4)sc3nc12 (centres undefined)
EC50 (Kallikrein-7): 25.1 µM (inactive)

Cc1cc(C)cc(NC(=O)Cc2ccc(S(=O)(=O)N3CCCC3)s2)c1
AC50 (Caspase-6): 24.2 µM (active)

COc1cccc(NC(=O)N(C)C[C@@H]2Oc3cc(C#Cc4ccc(F)cc4)ccc3S(=O)(=O)N([C@@H](C)CO)C[C@@H]2C)c1
AC50 [2]: 1.18 µM (active) | AC50 [3]: 2 µM (active) | AC50 [4]: > 100 µM (inactive) | AC50 [5]: 1.04 µM (active) | AC50 [6]: 1.22 µM (active)

— ChEMBL document CHEMBL1201862, “PubChem BioAssay data set” (2004)
